According to patent publication US6352709B1, “Localized use of nitric oxide-adducts to prevent internal tissue damage” (NitroMed, Inc., priority 1993, dated 2002):

What was measured:
platelet deposition [1] = details: systemic administration, porcine carotid model; cited from earlier work
platelet deposition [2] = assay: Indium-111-labeled platelet deposition and thrombus on coated dacron grafts in transected carotid arteries; format: in vivo, dogs; details: for average percent increase in graft weight due to thrombus formation on the luminal surface: dacron grafts, dog carotid artery, 2 hours, three grafts
Source text: This method requires the removal of platelets from an animal or human subject. The platelets are labeled with a radioactive material such as Indium^111, which emits gamma rays, detectable by a gamma counter placed 3 to 6 inches away from the source of radioactive platelets. The labeled platelets are either reinjected into the animal or human […], or contacted with the artificial surface […]. Platelets will adhere to artificial surfaces or acutely damaged arterial surfaces. Thus, the number of normal platelets and radioactive platelets which stick to the surface is an indication of the thrombogenicity of the surface.
First, the inventors coated dacron grafts and cardiac catheters with S-nitroso-bovine serum albumin (BSA). In three separate experiments, an identical pair of 6 mm. (internal diameter) knitted dacron grafts, 5 cm. in length, were prepared for surgical placement in the transected carotid arteries of three anesthetized dogs. No heparin was given. One graft was soaked in 5% BSA and the other graft was soaked in 5% BSA combined with 0.5 mM nitric oxide (producing S-nitroso-BSA) for one hour prior to insertion, and then rinsed in saline. The grafts were sutured in place with a continuous 6-0 proline suture.
Indium^111-labeled platelets are very useful in detecting platelet accumulation on vascular grafts. Therefore, Indium^111-labeled platelets were prepared according to standard methods described in Heyns “Method for Labeling Platelets with In^111-oxine”. In: Platelet Kinetics and Imaging Vol. II, Editors Heyns et al., CRC Press, 1985; and Sheffel et al., J. Nucl. Med., 20: 524-531, 1979, and injected prior to insertion of the grafts. […] The grafts were then placed in a Nal gamma well counter and counted for four minutes.

platelet deposition [3] = assay: Indium-111-labeled platelet deposition on coated 5 FR USC1 catheters in femoral arteries; format: in vivo, dogs; details: 5 FR catheters in dog femoral arteries 2 hours, counted four minutes, average of three
Source text: In addition, three pairs of 5 FR USC1 catheters were studied. One catheter was soaked in 5% BSA, while the other catheter was soaked in a mixture of S-nitroso BSA for one hour. The catheters were rinsed with saline and one each was inserted into the right or left femoral arteries of the dogs described above, and left for two hours. Each catheter was flushed with normal saline every one-half hour, but no heparin was given. The catheters were then removed and rinsed with saline. Equal lengths of the catheters were cut from the distal ends and each one was placed in a Nal gamma counter and the radioactivity was counted for four minutes.

damaged coronary artery = assay: Cyclic flow reductions (CFRs) in damaged, stenosed coronary artery; format: in vivo, dogs; details: approximately 0.5 mM NO, given selectively into circumflex coronary artery
platelet deposition [4] = assay: Indium-111-labeled platelet deposition on coated, dried and stored PVC tubing placed as femoral artery shunt; format: in vivo, dog; details: PVC tubing used three days after coating, femoral artery shunt 2 hours
Experimental: The inventors conducted an additional experiment to investigate whether S-nitroso-BSA can be used to coat a surface such as polyvinyl chloride (PVC), and in addition, whether such surfaces can be treated at one time, and used at a later time. In this experiment, three pieces of PVC, 3 mm in internal diameter and 2 cm. in length were soaked in BSA for 4 hours, allowed to dry, and placed in a dark place. Three identical pieces of PVC tubing were soaked in an S-nitroso-BSA solution for 4 hours, dried, and also placed in the dark.
Three days after coating, a pair of PVC tubing pieces, one coated with BSA, and one coated with S-nitroso-BSA, were placed as a shunt in each of the two femoral arteries of a dog. The dog was injected with Indium^111-labeled platelets as previously described. Two hours after the PVC shunts were placed in the circulation with radioactive platelets, they were removed and placed in the Nal gamma counter.

[5] = system: balloon-injured rabbit femoral artery; assay: Neointimal proliferation after balloon injury of femoral artery (morphometry); format: in vivo; details: 14 days after balloon injury, local delivery 15 minutes
Experimental: Femoral arteries were isolated and balloon injured as described below. pS-BSA or pS-NO-BSA were applied in a paired fashion directly into the arterial lumen for 15 minutes and then blood flow was re-established. […] Neointimal proliferation is reported as the absolute neointimal area in FIG. 5A and as a ratio of neointima/media in FIG. 5B in 4-6 segments from each artery. Data are expressed as mean +/− SEM and are derived from 15 vessels in the BSA and S-NO-BSA groups, 11 vessels in the PS-BSA group, 7 vessels in the PS-NO-BSA and SHAM groups, and 5 in the SNP group. *P<0.05, pS-NO-BSA vs. PS-BSA. +/+P<0.05 Sodium nitroprusside vs. pS-BSA for both FIGS. 5A and 5B.
Animal Preparation: All animal preparations were performed within the institutional guidelines of the Brockton/West Roxbury Department of Veteran Affairs Medical Center and Boston University Medical Center, and in accordance with the guiding principles of the American Physiological Society. New Zealand white rabbits (3.5-4.2 kg) of either sex were premedicated with 5 mg/kg intramuscular (IM) xylazine hydrochlolide (Miles Pharmaceuticals, Shawnee Mission, Kans.), and 0.1 mg/kg subcutaneous (SC) atropine sulfate (Lyphomed, Deerfield, Ill.) fifteen minutes prior to the induction of anesthesia. Anesthesia was induced with 40 mg/kg IM ketamine hydrochloride (Fort Dodge Laboratories, Fort Dodge, Ind.) and 5 mg/kg IM acepromazine maleate (Aveco Company, Inc., Fort Dodge, Ind.). Additional doses of ketamine hydrochloride were administered as necessary to maintain anesthesia. For survival studies, 100,000 U penicillin G (Apothecon of Bristol-Myers Squibb, Princeton, N.J.), was administered IM perioperatively. The skin over the femoral arteries was next infiltrated with 1% lidocaine (Astra Pharmaceuticals, Inc., Westborough, Mass.) and the common femoral arteries were exposed from the inguinal ligament to the superficial femoral artery. Arteries were cleared of connective tissue, side branches were ligated, and the superficial femoral artery was suspended with silk ties. A 1.5-to-2.0 cm length of femoral artery was isolated from the circulation proximally and distally with neurosurgical microaneurysm clips. The superficial femoral-artery was cannulated with a 2F Fogarty balloon catheter (American Edwards Laboratories, Santa Ana, Calif.) that was passed into the isolated segment of femoral artery. The balloon was inflated with sufficient air to generate slight resistance and withdrawn three times. A 20 g angiocath was then inserted in the arteriotomy and 1 ml of 25.8 mg/ml PS-NO-BSA or 49.2 mg/ml S-NO-BSA was administered over 15 minutes. The contralateral femoral artery was prepared identically and an appropriate control (25.8 mglml pS-BSA, 49.2 mg/ml BSA or 0.66 mg/ml sodium nitroprusside) was administered. For binding studies, 0.5 ml of [^125I]-labeled nitrosylated albumin or control was administered. Following administration of the agent, the superficial femoral artery was ligated and flow reestablished. Sham-operated animals underwent surgical exposure and sidebranch ligation, but no balloon injury was performed or local delivery administered. The area of balloon injury was marked by surgical staples in the adjacent muscle fascia. For chronic studies, the incision was closed with subcuticular absorbable suture and the animals allowed to recover. For acute studies, blood was allowed to circulate through the treated areas for 15 minutes prior to vessel harvest. In some experiments, a distant control vessel, the right carotid artery, was isolated and harvested without any other manipulation.
A 7F plastic cannula was inserted into the abdominal aorta and the vessels perfused clear with saline followed by fixation at 100 mm Hg pressure with 10% buffered formalin. The vessels were stored in 10% buffered formalin and the samples paraffin-embedded and microtome-sectioned. […]

[6] = system: clotting on the catheter wall; assay: Clotting on coated 3 FR USC1 catheters implanted in carotid artery; format: in vivo, dogs; details: catheters soaked 12 hours, in dog carotid artery 6-8 hours, no heparin
Experimental: In five anesthetized dogs, both carotid arteries were exposed. Two 3 FR USC1 catheters were prepared for arterial implantation. One catheter was soaked in a 5% BSA solution for 12 hours, while the other was soaked in a 5% BSA solution which also contained 1 mg/ml of sodium nitroprusside. One each of the two coated catheters was placed randomly in the right or left carotid artery of the dog through a small incision sealed with a 6-0 proline suture. The catheters were advanced for 5 cm into the arterial lumen. The dogs were not given any heparin. The catheters were removed 6-8 hours later and examined for clotting on the catheter wall and at the site where the catheter entered the carotid wall.

Compound	reduction in platelet deposition (platelet deposition [1])	average percent increase in graft weight due to thrombus formation on the luminal surface (platelet deposition [2])	Indium^111-labeled platelet counts on catheter (platelet deposition [3])	passivation of damaged arterial wall compared with sodium nitroprusside (damaged coronary artery)	Indium^111-labeled platelet counts on PVC shunt (platelet deposition [4])	neointima/media ratio [5]	neointimal area [5]	clotting on the catheter wall and entry site [6]	Indium^111-labeled platelet counts on graft (platelet deposition [2]; dacron grafts soaked 1 h, in dog carotid artery 2 hours, average of three grafts)
[NH-]c1c[n+](N2CCOCC2)no1 [SIN-1]	2.3 fold								
S-nitroso-bovine serum albumin [S-nitroso-BSA]		196% +/−71%	2,850±800 counts	better passivation and the effect lasts longer	97,510 counts/4 minutes	0.72+/−0.084	1.83+/−0.18 ×10^5 μm^2		
bovine serum albumin [BSA, reference compound]		410% +/−97%	9,000±1,100 counts		200,870 counts/4 minutes	1.07+/−0.167	2.54+/−0.33 ×10^5 μm^2	considerably more clotting	654,000 +/−89,000 counts/4 minutes
